Data published in patent US20250064773A1, “TARGETING ERO1 ALPHA WITH AURONE DERIVATIVES” (West Virginia University Board of Governors on behalf of …, priority 2021, published 2025).
Where two headings read alike, the source gives them in different places.

Tests used:
[1] = target: T1, MAO-B (Homo sapiens, UniProt P27338); details: cited from earlier work
T1 sequence (P27338 1-520): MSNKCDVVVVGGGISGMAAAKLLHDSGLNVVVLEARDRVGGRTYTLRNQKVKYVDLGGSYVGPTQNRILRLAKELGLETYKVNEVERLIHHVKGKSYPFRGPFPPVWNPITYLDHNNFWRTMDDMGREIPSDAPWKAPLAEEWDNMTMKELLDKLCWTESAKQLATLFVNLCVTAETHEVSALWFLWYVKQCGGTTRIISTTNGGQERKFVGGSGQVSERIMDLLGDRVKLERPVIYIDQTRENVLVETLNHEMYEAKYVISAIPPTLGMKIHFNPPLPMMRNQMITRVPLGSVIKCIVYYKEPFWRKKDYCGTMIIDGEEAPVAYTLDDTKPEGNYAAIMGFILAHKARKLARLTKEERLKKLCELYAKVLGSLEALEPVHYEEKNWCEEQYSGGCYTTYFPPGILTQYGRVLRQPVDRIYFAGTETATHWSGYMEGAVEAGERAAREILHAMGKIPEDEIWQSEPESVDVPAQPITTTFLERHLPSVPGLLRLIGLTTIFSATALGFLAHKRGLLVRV

[2] = test system: PC-9 ERO1α KO clones (CRISPR); assay: MTT viability assay, PC-9 ERO1α knockout clones; assay type: cell-based; details: 72 hours
Procedure: We utilized an MTT assay to determine the potency of the compounds for inhibiting cell growth. […] We next asked whether T151742 induced inhibition of cell growth was dependent on ERO1α expression. As shown in FIG. 6C two ERO1α deleted clones in the PC-9 cell line were isolated. Using an MTT assay to determine overall cellar viability, a non-targeted control (scramble), and both ERO1α knockout clones was subjected to treatment with T151742 for 72 hours (See FIG. 6D). […] Though only slight differences were observed between T151742 and EN-460 we tested the effects of these compounds in a clonogenic assay which is a better test for inhibition of self-renewal.
Cell Lines: PC-9 cell line used was obtained from Sigma Aldrich and grown in RPMI 1640 medium with 10% fetal bovine serum and 1% penicillin/streptomycin. HCC4006, U266, MM1.s, and Beas-2B cell lines were obtained from ATCC and cultured in either RPMI 1640 or DMEM with 10% fetal bovine serum and 1% penicillin/streptomycin. All cell lines were also checked for mycoplasma every six months and subjected to short tandem repeat (STR) analysis for cell line validation. CRISPR Cas9: CRISPR Guide RNA 2 targeting ERO1α and CRISPR Guide RNA 4 were purchased from Genscript in the pLentiCRISPR V2 plasmid containing puromycin/ampicillin selection marker. Lentivirus was made from HEK 293T cells by co-transfection with GuideRNA of interest, pVSVG, and pPAX2 plasmids. Lentivirus was collected after 48 hours and concentrated using 40% PEG8000. […] Plate was then read on the BioTek Cytation 5 at 530/590 nm. […] Plate was then read at 570 nm. Treated wells were all compared to DMSO control wells to calculate percent growth inhibition and the IC50 was calculated using GraphPad (log(inhibitor) vs growth inhibition). […] Images were then quantified using ImageJ. […] Cells were aliquoted at 1 million cells per PCR tube in PBS and heated in Bio-Rad T100 thermal cycler at indicated temperatures (RT, 46° C., 48° C., 50° C., 52° C., 54° C., 56°, 58° C., and 60° C.) for 3 minutes and aggregation temperature was determined by western blot analysis. […]

SMILES: CN(C)c1ccc(/C=C2\Oc3cc(O)ccc3C2=O)cc1 [Compound T151742]
- inhibition of / activity against MAO-B [1]: showed activity
- IC50 ([2]; read-out: IC50, MTT assay, PC-9 ERO1α KO Clone 1): 32.2 ± 1.09 µM
- IC50 ([2]; read-out: IC50, MTT assay, PC-9 ERO1α KO Clone 2): 41.5 ± 1.08 µM
- fold more resistant, ERO1α deleted cells compared to the control cell line ([2]; MTT): 2-3 fold
